Experimental data reported in PMC5761471 (Journal of Pharmaceutical Analysis, 2014).
Blank lines part the entries; values can stand above or below the compound they belong to.

Assays:
[1] = stated, not tested in this paper; cited from earlier work
[2] = Bioequivalence study, oral 400 mg raltegravir tablets; assay type: in vivo, human; conditions: healthy Indian subjects
[3] = Stability of raltegravir in spiked human plasma and processed extracts; assay type: in vitro ADME; conditions: n=6
[4] = cited from earlier work
[5] = Stability of standard stock solutions; assay type: physicochemical; conditions: stock solution in methanol, 25 °C
[6] = Bench-top, room temperature (25 °C), 8 h, nominal 6.0 ng/mL
[7] = Bench-top, room temperature (25 °C), 8 h, nominal 5000 ng/mL
[8] = Dry extract in deep freezer at −20 °C for 65 h, nominal 6.0 ng/mL
[9] = Dry extract in deep freezer at −20 °C for 65 h, nominal 5000 ng/mL
[10] = Freeze-thaw after 5th cycle at −20 °C, nominal 6.0 ng/mL
[11] = Freeze-thaw after 5th cycle at −20 °C, nominal 5000 ng/mL
[12] = Freeze-thaw after 5th cycle at −70 °C, nominal 6.0 ng/mL
[13] = Freeze-thaw after 5th cycle at −70 °C, nominal 5000 ng/mL
[14] = Long-term at −20 °C for 42 days, nominal 6.0 ng/mL
[15] = Long-term at −20 °C for 42 days, nominal 5000 ng/mL
[16] = Long-term at −70 °C for 42 days, nominal 6.0 ng/mL
[17] = Long-term at −70 °C for 42 days, nominal 5000 ng/mL
[18] = Wet extract (autosampler) at 4 °C for 65 h, nominal 6.0 ng/mL
[19] = Wet extract (autosampler) at 4 °C for 65 h, nominal 5000 ng/mL
[20] = Wet extract at 25 °C for 4 h, nominal 6.0 ng/mL
[21] = Wet extract at 25 °C for 4 h, nominal 5000 ng/mL

presence of circulating metabolite in plasma of subject samples ([2]; up to 4 h after oral administration of the drug): complete absence
Compound: Cc1nnc(C(=O)NC(C)(C)c2nc(C(=O)NCc3ccc(F)cc3)c(O[C@@H]3O[C@H](C(=O)O)[C@@H](O)[C@H](O)[C@H]3O)c(=O)n2C)o1 [RAL-Glu, raltegravir glucuronide]
pharmacological activity [1]: pharmacologically inactive

Change [3, 6]: 7.17%
Mean stability sample ±SD [3, 6]: 6.43 ± 0.15 ng/mL
Change [3, 7]: −5.81%
Mean stability sample ±SD [3, 7]: 4709.67 ± 72.69 ng/mL
Change [3, 8]: 3.83%
Mean stability sample ±SD [3, 8]: 6.23 ± 0.25 ng/mL
Change [3, 9]: −2.52%
Mean stability sample ±SD [3, 9]: 4874.00 ± 183.04 ng/mL
Change [3, 10]: 2.83%
Mean stability sample ±SD [3, 10]: 6.17 ± 0.22 ng/mL
Change [3, 11]: −4.54%
Mean stability sample ±SD [3, 11]: 4773.50 ± 106.40 ng/mL
Change [3, 12]: 2.83%
Mean stability sample ±SD [3, 12]: 6.17 ± 0.24 ng/mL
Change [3, 13]: −3.90%
Mean stability sample ±SD [3, 13]: 4804.83 ± 218.23 ng/mL
Change [3, 14]: −1.00%
Mean stability sample ±SD [3, 14]: 5.94 ± 0.26 ng/mL
Change [3, 15]: −3.12%
Mean stability sample ±SD [3, 15]: 4844.00 ± 247.40 ng/mL
Change [3, 16]: 3.33%
Mean stability sample ±SD [3, 16]: 6.20 ± 0.23 ng/mL
Change [3, 17]: −2.77%
Mean stability sample ±SD [3, 17]: 4861.50 ± 315.59 ng/mL
Change [3, 18]: 4.00%
Mean stability sample ±SD [3, 18]: 6.24 ± 0.28 ng/mL
Change [3, 19]: −3.24%
Mean stability sample ±SD [3, 19]: 4838.17 ± 209.68 ng/mL
Change [3, 20]: 3.83%
Mean stability sample ±SD [3, 20]: 6.23 ± 0.25 ng/mL
Change [3, 21]: −0.81%
Mean stability sample ±SD [3, 21]: 4959.33 ± 287.84 ng/mL
short-term stability of stock solution (stable up to) [5]: up to 8 h
time required to reach peak plasma concentration ([2]; single 400 mg oral dose, fasting): ~ 2 h
Compound: Cc1nnc(C(=O)NC(C)(C)c2nc(C(=O)NCc3ccc(F)cc3)c(O)c(=O)n2C)o1 [raltegravir]
increase of area under the plasma-time curve (AUC) with a high fat meal [4]: about 19%
